Measurements published in PubChem BioAssay AID248 (DTP/NCI, 2004).
Inconclusive results and toxic doses are left out. Rule as the data show it: active = T/C of 150% or more; inactive = T/C below 125%.

Tested on: L1210 leukemia ip in BDF1 mice, survival T/C
Assay: NCI In Vivo Anticancer Drug Screen. Data for tumor model L1210 Leukemia (intraperitoneal) in B6D2F1 (BDF1) mice
Conditions: endpoint: mean survival time, higher = longer survival
Outline: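 Ratio derived from survival: compound-dosed mice over vehicle-dosed mice, all bearing a transplantable tumor.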

[1] = dose: 100.0 mg/kg/injection, schedule: Q04DX003 (ip), vehicle: Klucel (hydroxypropylcellulose) (HPC)
[2] = dose: 200.0 mg/kg/injection, schedule: Q04DX003 (ip), vehicle: Klucel (hydroxypropylcellulose) (HPC)
[3] = dose: 400.0 mg/kg/injection, schedule: Q04DX003 (ip), vehicle: Klucel (hydroxypropylcellulose) (HPC)
[4] = dose: 100.0 mg/kg/injection, schedule: Q04DX002 (ip), vehicle: saline with Tween-80
[5] = dose: 200.0 mg/kg/injection, schedule: Q04DX002 (ip), vehicle: saline with Tween-80
[6] = dose: 400.0 mg/kg/injection, schedule: Q04DX002 (ip), vehicle: saline with Tween-80
[7] = dose: 25.0 mg/kg/injection, schedule: Q01DX009 (ip), vehicle: water
[8] = dose: 50.0 mg/kg/injection, schedule: Q01DX009 (ip), vehicle: water
[9] = dose: 100.0 mg/kg/injection, schedule: Q01DX009 (ip), vehicle: water

Measured: T/C

Cc1ccc(S(=O)(=O)N(C)c2ccc(C(=O)O)cc2F)cc1
inactive: dose: 75.0 mg/kg/injection, schedule: Q01DX001 (ip), vehicle: saline 105 % of control | dose: 75.0 mg/kg/injection, schedule: Q04DX003 (ip), vehicle: saline 100 % of control | dose: 150.0 mg/kg/injection, schedule: Q01DX001 (ip), vehicle: saline 90 % of control | dose: 150.0 mg/kg/injection, schedule: Q04DX003 (ip), vehicle: saline 97 % of control | dose: 300.0 mg/kg/injection, schedule: Q01DX001 (ip), vehicle: saline 98 % of control | dose: 300.0 mg/kg/injection, schedule: Q04DX003 (ip), vehicle: saline 97 % of control

N#C/C(=C/c1cc(Cl)ccc1O)C(N)=O
inactive: dose: 100.0 mg/kg/injection, schedule: Q01DX009 (ip), vehicle: Klucel (hydroxypropylcellulose) (HPC) 102 % of control | dose: 200.0 mg/kg/injection, schedule: Q01DX009 (ip), vehicle: Klucel (hydroxypropylcellulose) (HPC) 95 % of control | dose: 400.0 mg/kg/injection, schedule: Q01DX009 (ip), vehicle: Klucel (hydroxypropylcellulose) (HPC) 100 % of control

Cc1cc(Oc2nccnc2C)cc(C)c1N(C)C
inactive: [1] 101 % of control | [2] 94 % of control | [3] 94 % of control

CN(CCO)N=Nc1ccccc1
inactive: dose: 6.0 mg/kg/injection, schedule: Q01DX009 (ip), vehicle: other 105 % of control | dose: 12.0 mg/kg/injection, schedule: Q01DX009 (ip), vehicle: other 96 % of control | dose: 12.5 mg/kg/injection, schedule: Q01DX009 (ip), vehicle: other 112 % of control | dose: 18.0 mg/kg/injection, schedule: Q01DX009 (ip), vehicle: other 88 % of control | dose: 25.0 mg/kg/injection, schedule: Q01DX009 (ip), vehicle: other 109 % of control

CC(C)c1ccc(/C=C\C(=O)c2ccc(-c3ccccc3)cc2)cc1
inactive: dose: 100.0 mg/kg/injection, schedule: Q01DX009 (ip), vehicle: saline with Tween-80 103 % of control | [4] 86 % of control | dose: 200.0 mg/kg/injection, schedule: Q01DX009 (ip), vehicle: saline with Tween-80 106 % of control | [5] 101 % of control | [6] 101 % of control

CC(=O)OCc1ccc(O)c2ncccc12
inactive: dose: 75.0 mg/kg/injection, schedule: Q01DX001 (ip), vehicle: carboxymethylcellulose (CMC) 96 % of control | dose: 150.0 mg/kg/injection, schedule: Q01DX001 (ip), vehicle: carboxymethylcellulose (CMC) 100 % of control

CCOc1ccn(CC(=O)Nc2nccs2)c(=O)n1
inactive: dose: 100.0 mg/kg/injection, schedule: Q01DX009 (ip), vehicle: saline 100 % of control | dose: 100.0 mg/kg/injection, schedule: Q04DX003 (ip), vehicle: saline 98 % of control | dose: 200.0 mg/kg/injection, schedule: Q01DX009 (ip), vehicle: saline 103 % of control | dose: 200.0 mg/kg/injection, schedule: Q04DX003 (ip), vehicle: saline 96 % of control | dose: 400.0 mg/kg/injection, schedule: Q01DX009 (ip), vehicle: saline 105 % of control | dose: 400.0 mg/kg/injection, schedule: Q04DX003 (ip), vehicle: saline 100 % of control

CC(C)C(=O)c1ccc(-c2ccccc2)cc1
inactive: [7] 101 % of control | [8] 106 % of control | [9] 98 % of control | dose: 200.0 mg/kg/injection, schedule: Q01DX009 (ip), vehicle: water 95 % of control | dose: 400.0 mg/kg/injection, schedule: Q01DX009 (ip), vehicle: water 93 % of control

COc1cc(OC)c(N=Cc2ccc([N+](=O)[O-])s2)cc1Cl
inactive: [1] 101 % of control | [2] 101 % of control | [3] 95 % of control

CCNC(C)(C)C(SSSC(c1ccc(Br)cc1)C(C)(C)NCC)c1ccc(Br)cc1 (configuration not stated)
inactive: [7] 96 % of control | [8] 90 % of control | [9] 88 % of control

O=C1c2ccccc2C(=O)c2c(O)cccc21
inactive: [1] 101 % of control | [2] 89 % of control | [3] 105 % of control

O=[N+]([O-])c1cccc(-c2cnc(-c3ccccc3)cc2-c2ccccc2O)c1
inactive: [4] 94 % of control | [5] 94 % of control | [6] 102 % of control
